The text below walks through data of BindingDB's records for doi:10.1016/j.bmcl.2008.02.026 (Irbm/Merck Research Laboratories, 2008).

This test addresses T1, Histone deacetylase 6 (Homo sapiens, UniProt Q9UBN7).
T1 sequence (Q9UBN7 whole entry): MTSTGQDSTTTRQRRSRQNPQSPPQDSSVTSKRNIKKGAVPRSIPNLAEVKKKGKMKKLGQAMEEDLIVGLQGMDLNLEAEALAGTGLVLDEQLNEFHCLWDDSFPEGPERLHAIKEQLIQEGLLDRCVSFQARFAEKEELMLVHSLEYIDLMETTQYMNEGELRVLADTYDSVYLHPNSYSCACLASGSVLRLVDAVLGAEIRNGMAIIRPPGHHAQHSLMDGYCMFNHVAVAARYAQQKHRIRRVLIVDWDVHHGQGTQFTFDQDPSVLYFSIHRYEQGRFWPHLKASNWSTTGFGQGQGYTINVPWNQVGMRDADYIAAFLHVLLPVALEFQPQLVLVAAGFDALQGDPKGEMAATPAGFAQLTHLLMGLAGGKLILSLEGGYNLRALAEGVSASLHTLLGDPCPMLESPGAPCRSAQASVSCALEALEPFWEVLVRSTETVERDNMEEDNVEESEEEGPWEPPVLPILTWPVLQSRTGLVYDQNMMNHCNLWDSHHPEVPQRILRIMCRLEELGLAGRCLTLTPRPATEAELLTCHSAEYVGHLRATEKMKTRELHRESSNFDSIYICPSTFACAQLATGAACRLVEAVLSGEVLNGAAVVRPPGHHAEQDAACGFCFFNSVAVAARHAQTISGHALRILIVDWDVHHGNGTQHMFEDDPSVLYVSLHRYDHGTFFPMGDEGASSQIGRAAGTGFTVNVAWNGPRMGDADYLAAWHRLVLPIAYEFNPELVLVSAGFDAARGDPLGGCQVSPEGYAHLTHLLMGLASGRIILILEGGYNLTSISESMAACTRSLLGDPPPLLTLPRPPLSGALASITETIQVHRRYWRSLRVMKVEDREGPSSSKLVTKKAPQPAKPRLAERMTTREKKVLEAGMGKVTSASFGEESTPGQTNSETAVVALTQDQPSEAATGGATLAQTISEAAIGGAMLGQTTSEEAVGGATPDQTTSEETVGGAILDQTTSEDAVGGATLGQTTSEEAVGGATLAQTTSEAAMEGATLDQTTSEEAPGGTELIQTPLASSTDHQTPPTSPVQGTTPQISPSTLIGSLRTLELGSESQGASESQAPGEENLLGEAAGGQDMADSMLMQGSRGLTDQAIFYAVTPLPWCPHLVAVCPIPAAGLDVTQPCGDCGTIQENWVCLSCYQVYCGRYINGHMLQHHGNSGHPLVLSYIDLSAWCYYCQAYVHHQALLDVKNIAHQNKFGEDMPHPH
Kind of test: HDAC Activity Assay. The settings on record: 25 °C. Here is the method: The Fluor-de-Lys HDAC activity assay kit (Biomol) was used. Purified recombinant HDAC enzyme was incubated with Fluor-de-Lys substrate in the presence of test compounds. Fluor-de-Lys Developer was then added, and the mixture was incubated for another 10 min at room temperature. Fluorescence was measured using a fluorescent plate reader, with excitation 360 nm and emission 460 nm.

pIC50: −log10 of the molar value.

`NC(=O)c1ccc(C(=O)C(F)(F)F)cn1` [5-(2,2,2-trifluoroacetyl)pyridine-2-carboxamide] showed a pIC50 of 5.38.

A word on the pIC50: it is the IC50 on a negative log10 scale, so that one unit is a factor of ten. Lower therefore signals a large IC50.
